Measured values published in patent publication US20080286213A1, “Pharmaceuticals for treating or preventing oral diseases” (HAWLEY & HAZEL (BVI) COMPANY LIMITED, priority 2007, published 2008).

Assays:
[1] = system: TNF-α (Tumor Necrosis Factor); experiment: LUMINEX liquid-phase chip analysis of KB cell supernatant, TNF-α; format: cell-based, human; conditions: KB cells; the larger the value, the stronger the anti-inflammatory ability; concentration not given
Description: (§1) Anti-inflammatory activity was assessed using the KB cell (the epidermis cancer cell in human oral cavity). During the experiment, the KB cell inoculated in the cultivating plate was treated with or without positive control or compound morusin. After the treatment, the supernatant of the cultivating medium was collected and stored in −80° C. refrigerator. Inflammation was assessed by measuring several inflammation markers: Prostaglandin E2 (PGE2) in the supernatant was detected by Enzyme-linked immunsorbent assay, and LUMINEX™ multifunctional liquid-phase chip analysis system was used for the detection of granulocyte […] colony stimulating factor (GM-CSF), tumor necrosis factor-alpha (TNF-α), and interleukins 1-beta and 6 (IL-1β and IL-6).
(§2) LUMINEX™ multifunctional liquid-phase chip analyses of GM-CSF, TNF-α, IL-1 and IL-6: The 96-well plate was enclosed with enclosing liquid for 30 minutes. Fluorescent microspheres were added into the 96-well plate after dilution. The standard and the samples to be measured were added, and incubated overnight at 4° C. The next day, the supernatant was discarded and 50 μL GM-CSF, TNF-α, IL-1β and IL-6 antibodies were added to each well. After being rinsed for 4 times, the 96-well plate was placed in a shaking table, which was in ambient temperature, to keep the plate away from light for 1 hour. […]

[2] = system: Fusobacterium nucleatum subsp. Polymorphum (F. n) ATCC 10953; experiment: MIC by micro-dilution method; format: cell-based; conditions: no unit in table; dilution series 250-0.12 mg/L, ceiling 250 ppm; 37°C, 18-24 h
Description: (§3) A single colony was picked from the Trypticase Digested Soybean peptone agar blood plate (TSA5B) of ordinarily stored bacteria species and used to inoculate corresponding broth culture medium, which was cultivated in a microaerobic environment (P.g needs anaerobic cultivation) with 95% air, 5% CO2 at 37.0° C.±1.0° C., wherein S.m was cultivated for 18-24 h, and the species were cultivated for 40-48 h. Then corresponding broth cultivate medium was used to adjust the turbidity of the bacteria suspension to 0.5^# McFarland standard, equivalent to 1.0×10^8 CFU/mL.
(§4) The operating steps were:
(§5) a. Preparation of the stock solution of antibacterial pharmaceutical: 1% stock solution of various antibacterial pharmaceuticals was prepared with 100% pure ethanol as solvent. The prepared stock solution was filtered to eliminate bacteria, and was distributed into small portions to be used.
(§6) b. Range of measured concentration: the present experiment used 250 ppm as the ceiling measured concentration of the anti-bacterial pharmaceutical.
(§7) c. Measuring method: micro-dilution method.
(§8) First, 100 μL broth medium was added to each well of the 96-well plate, then 100 μL sterile anti-bacteria pharmaceutical solution, which was diluted 10-fold (1000 mg/L), was added to each hole of the first column. Then each well of the first column was mixed repeatedly for 7-8 times using a multi-channel micropipet, and 100 μL sample was transferred to the second column after sufficiently mixing the pharmaceutical with TSB. After being similarly mixed for 7-8 times, 100 μL sample was transferred to the third column, and likewise to the wells of the remaining columns. Thus the concentration of the pharmaceutical was gradiently diluted 2-fold between the columns, from 500 mg/L in the first column to 0.24 mg/L in the last column (the 12th column).
(§9) The bacteria to be tested and standard bacteria were prepared as above. Both bacteria solutions were diluted with broth medium to a bacteria content of about 10^6 CFU/mL. Then 100 μL was inoculated into each well of the 96-well plate containing the anti-bacterial pharmaceutical. Thus the final diluted concentrations of the anti-bacteria pharmaceutical in each column were 250, 125, 62.5 . . . 0.12 mg/L, and the final inoculation quantity is about […] in each well. The 96-well plate was placed on a microshaker and shaken for 1 min to mix the solutions in each well. The microwell plate was covered and sealed with adhesive paper to reduce the evaporation during the incubation process. The plate was placed in a humid box, cultivated in microaerobic environment with 95% air, 5% CO2 (or in anaerobic environment with 90% N2, 5% H2, 5% CO2) at 37.0° C.±1.0° C. for 18-24 h. The 96-well plate is placed under an enzyme-labeling instrument. The growth characteristics of the tested bacteria were compared with the standard bacteria to determine the MIC, which was the lowest anti-bacterial pharmaceutical concentration contained in the well without bacterial growth.

[3] = system: Actinobacillus actinomycetemcomitans (A. a) ATCC 43717; experiment: MIC by micro-dilution method; format: cell-based; conditions: no unit in table; dilution series 250-0.12 mg/L, ceiling 250 ppm; 37°C, 18-24 h
Description: as §3, §4, §5, §6, §7, §8, §9

[4] = system: Actinomyces viscosus (A. v) ATCC 27044; experiment: MIC by micro-dilution method; format: cell-based; conditions: no unit in table; dilution series 250-0.12 mg/L, ceiling 250 ppm; 37°C, 18-24 h
Description: as §3, §4, §5, §6, §7, §8, §9

[5] = system: Streptococcus sanguis (S. sa) ATCC 10556; experiment: MIC by micro-dilution method; format: cell-based; conditions: no unit in table; dilution series 250-0.12 mg/L, ceiling 250 ppm; 37°C, 18-24 h
Description: as §3, §4, §5, §6, §7, §8, §9

[6] = system: Streptococcus mutans (S. m) ATCC 25175; experiment: MIC by micro-dilution method; format: cell-based; conditions: no unit in table; dilution series 250-0.12 mg/L, ceiling 250 ppm; 37°C, 18-24 h
Description: as §3, §4, §5, §6, §7, §8, §9

[7] = system: Porphyromonas gingivalis (P. g) ATCC 33277; experiment: MIC by micro-dilution method; format: cell-based; conditions: no unit in table; dilution series 250-0.12 mg/L, ceiling 250 ppm; anaerobic, 37°C, 18-24 h
Description: as §3, §4, §5, §6, §7, §8, §9

[8] = system: Actinomyces naeslundii (A. n) ATCC 12104; experiment: MIC by micro-dilution method; format: cell-based; conditions: no unit in table; dilution series 250-0.12 mg/L, ceiling 250 ppm; 37°C, 18-24 h
Description: as §3, §4, §5, §6, §7, §8, §9

Prostaglandin E2 (PGE2) = experiment: PGE2 enzyme-linked immunosorbent assay in KB cell supernatant; format: cell-based, human; conditions: oral KB cell, PGE2 in supernatant by ELISA
Description: as §1

IL-6 (interleukin) = experiment: LUMINEX liquid-phase chip analysis of KB cell supernatant, IL-6; format: cell-based, human; conditions: KB cells; the larger the value, the stronger the anti-inflammatory ability; concentration not given
Description: as §1, §2

IL-1β (interleukin) = experiment: LUMINEX liquid-phase chip analysis of KB cell supernatant, IL-1β; format: cell-based, human; conditions: KB cells; the larger the value, the stronger the anti-inflammatory ability; concentration not given
Description: as §1, §2

GM-CSF = experiment: LUMINEX liquid-phase chip analysis of KB cell supernatant, GM-CSF; format: cell-based, human; conditions: KB cells; the larger the value, the stronger the anti-inflammatory ability; concentration not given
Description: as §1, §2

| SMILES | anti-inflammatory effect, TNF-α (Tumor Necrosis Factor) [1] [%] | MIC, F. n ATCC 10953 [2] | MIC, A. a ATCC 43717 [3] | MIC, A. v ATCC 27044 [4] | MIC, S. sa ATCC 10556 [5] | MIC, S. m ATCC 25175 [6] | MIC, P. g ATCC 33277 [7] | MIC, A. n ATCC 12104 [8] | 50% inhibitory concentration (Prostaglandin E2 result) (Prostaglandin E2 (PGE2)) [ppm] | anti-inflammatory effect, IL-6 (interleukin) (IL-6 (interleukin)) [%] | anti-inflammatory effect, IL-1β (interleukin) (IL-1β (interleukin)) [%] | anti-inflammatory effect, GM-CSF (GM-CSF) [%] |
| --- | --- | --- | --- | --- | --- | --- | --- | --- | --- | --- | --- | --- |
| CC(C)=CCc1c(-c2ccc(O)cc2O)oc2c3c(cc(O)c2c1=O)OC(C)(C)C=C3 [Morusin, 2-(2,4-dihydroxyphenyl)-5-hydroxy-8,8-dimethyl-3-(3-methyl-2-butenyl)-4H,8H-Benzo(1,2-b:3,4-b′)dipyran-4-one] | 91 | 15.6 | 2.4 | 2.4 | 3.9 | 3.9 | 1.9 | 1.9 | 0.02 | 49 | 20 | 9 |
| Oc1cc(Cl)ccc1Oc1ccc(Cl)cc1Cl [Triclosan] | 81 | 7.8 | 1.95 | 3.9 | 7.8 | 3.9 | 7.8 | 3.9 | ~0.02 | 31 | 7 | 5 |
